Values quoted from earlier work, collected in patent publication US20210189389A1, “METHODS OF MODULATING ANK1” (SOCIETE DES PRODUITS NESTLE S.A., priority 2017, published 2021).

Tested on: ANK1
Conditions: effect on ANK1 expression, from Comparative Toxicogenomics Database and cited reference

Compound | Interaction Actions
CC(=O)Nc1ccc(O)cc1 [Acetaminophen] | affects expression
CCCCc1oc2ccccc2c1C(=O)c1cc(I)c(OCCN(CC)CC)c(I)c1 [Amiodarone] | affects expression
c1ccc2c(c1)cc1ccc3cccc4ccc2c1c34 [Benzo(a)pyrene] | decreases expression
NC(=O)N1c2ccccc2C=Cc2ccccc21 [Carbamazepine] | affects expression
CN(C)CCCN1c2ccccc2Sc2ccc(Cl)cc21 [Chlorpromazine] | affects expression
ClC1=C(Cl)[C@]2(Cl)[C@@H]3[C@@H]4C[C@@H]([C@H]5O[C@@H]45)[C@@H]3[C@@]1(Cl)C2(Cl)Cl [Dieldrin] | decreases expression
CCCc1cc(=O)[nH]c(=S)[nH]1 [Propylthiouracil] | decreases expression
CC/C(=C(\c1ccccc1)c1ccc(OCCN(C)C)cc1)c1ccccc1 [Tamoxifen] | affects expression
CC(=N)S [Thioacetamide] | affects expression
CC[C@@]1(O)C(=O)OCc2c1cc1n(c2=O)Cc2cc3c(CN(C)C)c(O)ccc3nc2-1 [Topotecan] | decreases expression
CCCC(CCC)C(=O)O [Valproic Acid] | affects expression
Brc1c(Br)c(Br)c(Oc2c(Br)c(Br)c(Br)c(Br)c2Br)c(Br)c1Br [decabromobiphenyl ether] | decreases expression
O=C1[O][Pt]2([NH][C@@H]3CCCC[C@H]3[NH]2)[O]C1=O [oxaliplatin] | decreases expression
Gentamicins | decreases expression
